Like-named read-outs stand apart in the source and are kept apart here.
Experiments:
FaDu cells = assay: In vitro cytotoxicity, 4 h exposure oxic/anoxic, 5-day regrowth, sulforhodamine B; format: cell-based; details: for IC50: Homo sapiens, 4 h exposure, mean ± SEM
[1] = system: UT-SCC-74B tumour xenografts; assay: Tumour growth inhibition in combination with radiation; format: in vivo, NIH-III mice; details: UT-SCC-74B tumours, single dose 2.2 mmol/kg i.v.
Method: (§1) Specific pathogen-free six- to eight-week-old female NIH-III mice, bred in the Vernon Jansen Unit, University of Auckland, were used for animal experiments. Animals had ad libitum access to food and water and were maintained in microisolator cages on a 12 h light/dark cycle. All treatments were administered by i.v. injection at a dose of 2.2 mmol/kg and injection volume of 10 mL/kg. Compounds 2, 34 and 38 were administered as solutions in saline containing 1% DMSO or for 9–12 as solutions in saline containing 2 molar equivalents of NaHCO3. Control animals received an i.v. injection of saline at 10 mL/kg. All animal experiments were conducted under the auspices of the University of Auckland Animal Ethics Committee (approval 1781).
(§2) Compounds were evaluated for their ability to inhibit tumour growth in combination with a single dose of radiation (10 Gy) in HCT116/54C or UT-SCC-74B tumour xenografts on the backs of NIH-III mice. In addition, a fractionated radiation schedule (5 Gy on Days 1, 7 and 14) was explored in HCT116/54C tumour xenografts. Mice were randomly assigned to 4 treatment groups and treated with: (A) vehicle control, (B) 10 Gy RAD only, (C) sensitiser only, or (D) sensitiser given 10 min before 10 Gy RAD. Drugs were administered by i.v. injection at 2.2 mmol/kg either as a single dose or three doses on Days 1, 7 and 14 in the fractionated study. Treatment commenced when the average tumour size reached approximately 250 mm^3, and tumour size was measured until study endpoint. Mice were placed in a custom-built lead-shielded jig that allowed irradiation of the whole tumour but shielded the mouse from radiation. Survival analysis represented the time taken for tumours to increase in relative tumour volume by 4× from the start of treatment (RTV^4). The significance of differences in activity between the groups was assessed by log-rank with Holm–Sidak multiple comparison analysis.

[2] = system: HCT116/54C tumour xenografts; assay: as above; format: in vivo, NIH-III mice; details: HCT116/54C tumours
Method: as §1, §2

HCT116/54C cells = assay: In vitro radiosensitisation under anoxia, clonogenic survival; format: cell-based, human; details: compound 1 mM, radiation dose for 1% survival/radiation dose for 1% survival with compound, mean ± SEM
[3] = Tolerability at maximum achievable dose, i.v.; format: in vivo; details: i.v. injection, NIH-III mice
Excerpt: The most promising 2-nitroimidazole 34 and 5-nitroimidazole 38 compounds were selected for in vivo evaluation on the basis of solubility, in vitro cytotoxicity and radiosensitisation data. These compounds were both well tolerated by i.v. injection in NIH-III mice at their maximum achievable dose (MAD) of 2.2 mmol/kg. This MAD was also achieved for some of our earlier compounds, but only when we employed a phosphate prodrug strategy owing to their poor solubility. […] The Cmax and AUC exceeded that achieved for earlier phosphate prodrugs 9–12, but was less than 2. On this basis we advanced both morpholine analogues into in vivo radiosensitisation studies.
as §1

Compound: O=[N+]([O-])c1nccn1CS(=O)(=O)NCCN1CCOCC1 [Compound 34]
- IC50 (FaDu cells; anoxic, n = 3–4, read-out: IC50 Anoxic): 160 ± 10 µM
- IC50 (FaDu cells; oxic, n = 3–4, read-out: IC50 Oxic): 3700 ± 100 µM
- HCR (FaDu cells; IC50(oxic)/IC50(anoxic)): 23.3
- tumour growth inhibition with single dose 10 Gy radiation [1]: able to sensitise 10 Gy radiation to a similar level observed with 2
- survival (time to RTV^4) vs radiation alone ([2]; fractionated radiation, p < 0.05): significantly increased survival compared to radiation alone
- tumour growth delay with fractionated radiation ([2]; qw × 3, 5 Gy, 2.2 mmol/kg i.v.): delayed tumour growth relative to radiation alone
- tumour growth inhibition with single dose 10 Gy radiation ([2]; single dose 2.2 mmol/kg i.v.): able to sensitise 10 Gy radiation to a similar level observed with 2
- SER at 1 mM (HCT116/54C cells): 1.92 ± 0.01
- maximum achievable dose (MAD), well tolerated [3]: 2.2 mmol/kg
